From patent publication US20150105252A1, “SUBSTITUTED PYRAZOLES AS HERBICIDES” (E I DU PONT DE NEMOURS AND COMPANY, priority 2013, published 2015)

How the values were obtained:
soybean = assay: Test C preemergence; assay type: in vivo, Glycine max; settings: for Plant response rating (scale of 0 to 100), Soybean: Preemergence, 250 g ai/ha; for Soybean plant response rating / Plant response rating, Soybean: preemergence; for Plant response rating, Soybean: scale 0 to 100, 0 = no effect, 100 = complete control
From the text: (§1) Seeds of plant species selected from blackgrass (Alopecurus myosuroides), ryegrass, Italian (Italian ryegrass, Lolium multiflorum), wheat (winter wheat, Triticum aestivum), galium (catchweed bedstraw, Galium aparine), corn (Zea mays), crabgrass, large (large crabgrass, Digitaria sanguinalis), foxtail, giant (giant foxtail, Setaria faberii), johnsongrass (Sorghum halepense), lambsquarters (Chenopodium album), morningglory (Ipomoea coccinea), nutsedge, yellow (yellow nutsedge, Cyperus esculentus), pigweed (redroot pigweed, Amaranthus retroflexus), ragweed (common ragweed, Ambrosia elation), soybean (Glycine max), barnyardgrass (Echinochloa crus-galli), oilseed rape (Brassica napus), waterhemp (common waterhemp, Amaranthus rudis), oat, wild (wild oat, Avena fatua), kochia (Kochia scoparia), Surinam grass (Brachiaria decumbens), foxtail, green (green foxtail, Setaria viridis), goosegrass (Eleusine indica), bromegrass, downy (downy bromegrass, Bromus tectorum), nightshade (eastern black nightshade, Solanum ptycanthum), cocklebur (common cocklebur, Xanthium strumarium), cupgrass, woolly (woolly cupgrass, Eriochloa villosa), bermudagrass (Cynodon dactylon), sunflower, (common oilseed sunflower, Helianthus annuus), Russian thistle (Salsola kali), and velvetleaf (Abutilon theophrasti) were planted into a blend of loam soil and sand and treated preemergence with test chemicals formulated in a non-phytotoxic solvent mixture which included a surfactant.
(§2) At the same time, plants selected from these crop and weed species and also chickweed (common chickweed, Stellaria media), canarygrass (littleseed canarygrass, Phalaris minor), and deadnettle (henbit deadnettle, Lamium amplexicaule), were planted in pots containing Redi-Earth® planting medium (Scotts Company, 14111 Scottslawn Road, Marysville, Ohio 43041) comprising spaghnum peat moss, vermiculite, wetting agent and starter nutrients and treated with postemergence applications of test chemicals formulated in the same manner. Plants ranged in height from 2 to 18 cm (1- to 4-leaf stage) for postemergence treatments. Treated plants and controls were maintained in a greenhouse for 13 to 15 days, after which time all species were compared to controls and visually evaluated. Plant response ratings, summarized in Table C, are based on a scale of 0 to 100 where 0 is no effect and 100 is complete control. A dash (-) response means no test result.

galium = assay: Test C preemergence; assay type: in vivo, Galium aparine; settings: for Plant response rating (scale of 0 to 100), Galium: Preemergence, 250 g ai/ha; for Galium plant response rating / Plant response rating, Galium: preemergence; for Plant response rating, Galium: scale 0 to 100, 0 = no effect, 100 = complete control
From the text: as §1, §2

foxtail, giant = assay: Test A postemergence; assay type: in vivo, Setaria faberii
Procedure, shortened: (§3)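 Visual injury ratings, 0 = no effect to 100 = complete control, taken about 10 days after treatment against untreated controls. Test chemicals, in a non-phytotoxic surfactant-containing solvent, were sprayed onto soil preemergence or onto one- to two-leaf plants (2–10 cm) postemergence, in loam–sand soil under greenhouse conditions.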

sedge, umbrella = assay: Test B flood; assay type: in vivo, Cyperus difformis; settings: 250 g ai/ha, visual rating on 0 to 100 scale (0 no effect, 100 complete control), 13 to 15 days
Procedure, shortened: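 Plants were grown to the 2-leaf stage, then pots were flooded to 3 cm above the soil and compounds were applied directly into the paddy water. Water depth was held for the whole test; after 13 to 15 days in a greenhouse, injury was visually rated against untreated controls (0 = no effect, 100 = complete control).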

ryegrass, Italian = assay: Test C preemergence; assay type: in vivo, Lolium multiflorum; settings: for Plant response rating (scale of 0 to 100), Ryegrass, Italian: Preemergence, 250 g ai/ha
From the text: as §1, §2

corn = assay: Test A postemergence; assay type: in vivo, Zea mays
Procedure, shortened: as §3

pigweed [1] = assay: Test C preemergence; assay type: in vivo, Amaranthus retroflexus; settings: for Plant response rating (scale of 0 to 100), Pigweed: Preemergence, 250 g ai/ha; for Pigweed plant response rating / Plant response rating, Pigweed: preemergence; for Plant response rating, Pigweed: scale 0 to 100, 0 = no effect, 100 = complete control
From the text: as §1, §2

pigweed [2] = assay: Test A preemergence; assay type: in vivo, Amaranthus retroflexus
Procedure, shortened: as §3

nutsedge, yellow = assay: Test C preemergence; assay type: in vivo, Cyperus esculentus; settings: for Plant response rating (scale of 0 to 100), Nutsedge, Yellow: Preemergence, 250 g ai/ha; for Nutsedge, Yellow plant response rating / Plant response rating, Nutsedge, Yellow: preemergence; for Plant response rating, Nutsedge, Yellow: scale 0 to 100, 0 = no effect, 100 = complete control
From the text: as §1, §2

crabgrass, large = assay: Test C preemergence; assay type: in vivo, Digitaria sanguinalis; settings: for Plant response rating (scale of 0 to 100), Crabgrass, Large: Preemergence, 250 g ai/ha; for Crabgrass, Large plant response rating / Plant response rating, Crabgrass, Large: preemergence; for Plant response rating, Crabgrass, Large: scale 0 to 100, 0 = no effect, 100 = complete control
From the text: as §1, §2

morningglory [3] = assay: Test C preemergence; assay type: in vivo, Ipomoea coccinea; settings: for Plant response rating (scale of 0 to 100), Morningglory: Preemergence, 250 g ai/ha
From the text: as §1, §2

velvetleaf = assay: Test A postemergence; assay type: in vivo, Abutilon theophrasti
Procedure, shortened: as §3

morningglory [4] = assay: Test A postemergence; assay type: in vivo, Ipomoea spp.
Procedure, shortened: as §3

morningglory [5] = assay: Test A preemergence; assay type: in vivo, Ipomoea spp.
Procedure, shortened: as §3

[6] = 31 g ai/ha, visual rating, scale 0 to 100 (0 no effect, 100 complete control), 13 to 15 days
[7] = 62 g ai/ha, scale 0 to 100 (0 no effect, 100 complete control), 13 to 15 days
[8] = Postemergence, 500 g ai/ha, 0 to 100 scale (0 no effect, 100 complete control)
[9] = postemergence, 125 g ai/ha, about 10 days, visual rating on 0 to 100 scale (0 no effect, 100 complete control)
[10] = preemergence, 31 g ai/ha, visual rating, scale 0 to 100 (0 no effect, 100 complete control), 13 to 15 days
[11] = preemergence, 62 g ai/ha, scale 0 to 100 (0 no effect, 100 complete control), 13 to 15 days
[12] = preemergence, 125 g ai/ha, 13 to 15 days, scale 0 to 100, 0 = no effect, 100 = complete control
[13] = preemergence, 125 g ai/ha, visual injury, 0 to 100 scale, approx. 10 days
[14] = preemergence, 500 g ai/ha, visual injury after approx. 10 days, 0 to 100 scale (0 no effect, 100 complete control)
[15] = 125 g ai/ha, scale 0 to 100, 0 is no effect, 100 is complete control
[16] = Postemergence, 500 g ai/ha, visual rating after approx. 10 days, 0 to 100 scale (0 no effect, 100 complete control)
[17] = Preemergence, 500 g ai/ha, 0 to 100 scale, 0 no effect, 100 complete control
[18] = preemergence, 125 g ai/ha, scale 0 to 100, 0 is no effect, 100 is complete control

Compound | Plant response rating (scale of 0 to 100), Soybean (soybean) | Soybean plant response rating (soybean; [6]) | Soybean plant response rating (soybean; [7]) | Plant response rating (scale of 0 to 100), Galium (galium) | Galium plant response rating (galium; [7]) | Foxtail, Giant plant response rating (foxtail, giant; [8]) | Foxtail, Giant plant response rating (foxtail, giant; [9]) | Plant response rating, Sedge, Umbrella (sedge, umbrella) | Plant response rating (scale of 0 to 100), Ryegrass, Italian (ryegrass, Italian) | Ryegrass, Italian plant response rating (ryegrass, Italian; [10]) | Corn plant response rating (corn; [8]) | Corn plant response rating (corn; [9]) | Plant response rating (scale of 0 to 100), Pigweed (pigweed [1]) | Pigweed plant response rating (pigweed [1]; [6]) | Pigweed plant response rating (pigweed [2]; [13]) | Pigweed plant response rating (pigweed [2]; [14]) | Plant response rating (scale of 0 to 100), Nutsedge, Yellow (nutsedge, yellow) | Nutsedge, Yellow plant response rating (nutsedge, yellow; [6]) | Plant response rating (scale of 0 to 100), Crabgrass, Large (crabgrass, large) | Crabgrass, Large plant response rating (crabgrass, large; [6]) | also measured
CCOc1cc(C(=O)NC2CC2)nn1Cc1ccnc(OC(F)F)c1 [Compound 133] | 95 | 50 | 40 | 100 | 95 | 100 | 100 | 90 | 95 | 35 | 80 | 60 | 100 | 100 | 100 | 100 | 85 | 20 | 100 | 100 | Plant response rating, Soybean (soybean; 125 g ai/ha, 13 to 15 days): 85; Plant response rating, Galium (galium; 125 g ai/ha, 13 to 15 days): 98; Ryegrass, Italian plant response rating (ryegrass, Italian; [11]): 85; Plant response rating, Ryegrass, Italian (ryegrass, Italian; [12]): 90; Pigweed plant response rating (pigweed [1]; [7]): 75; Plant response rating, Pigweed (pigweed [1]; 125 g ai/ha, 13 to 15 days): 100; Nutsedge, Yellow plant response rating (nutsedge, yellow; [7]): 25; Plant response rating, Nutsedge, Yellow (nutsedge, yellow; 125 g ai/ha, 13 to 15 days): 70; Crabgrass, Large plant response rating (crabgrass, large; [7]): 100; Plant response rating, Crabgrass, Large (crabgrass, large; 125 g ai/ha, 13 to 15 days): 100; Plant response rating (scale of 0 to 100), Morningglory (morningglory [3]): 100; Morningglory plant response rating (morningglory [3]; [10]): 75; Morningglory plant response rating (morningglory [3]; [11]): 100; Plant response rating, Morningglory (morningglory [3]; [12]): 100
CCc1cc(C(=O)NCC(F)(F)F)nn1Cc1ccnc(C(F)(F)F)c1 [Compound 78, 5-ethyl-N-(2,2,2-trifluoroethyl)-1-[[(2-trifluoromethyl)-4-pyridinyl]methyl]-1H-pyrazole-3-carboxamide] | 98 | 98 |  | 100 |  |  | 90 | 80 |  |  |  | 100 | 100 | 100 | 100 |  | 98 | 70 | 100 | 100 | Plant response rating, Soybean (soybean; 62 g ai/ha, 13 to 15 days): 98; Soybean plant response rating (soybean; [15]): 98; Velvetleaf plant response rating (velvetleaf; [16]): 100; Velvetleaf plant response rating (velvetleaf; [9]): 100; Galium plant response rating (galium; [6]): 85; Plant response rating, Galium (galium; 62 g ai/ha, 13 to 15 days): 100; Galium plant response rating (galium; [15]): 100; Foxtail, Giant plant response rating (foxtail, giant; [16]): 100; Corn plant response rating (corn; [16]): 100; Morningglory plant response rating (morningglory [4]; [16]): 100; Morningglory plant response rating (morningglory [4]; [9]): 100; Plant response rating, Pigweed (pigweed [1]; 62 g ai/ha, 13 to 15 days): 100; Pigweed plant response rating (pigweed [1]; [15]): 100; Pigweed plant response rating (pigweed [2]; [17]): 100; Plant response rating, Nutsedge, Yellow (nutsedge, yellow; 62 g ai/ha, 13 to 15 days): 85; Nutsedge, Yellow plant response rating (nutsedge, yellow; [15]): 98; Morningglory plant response rating (morningglory [5]; [17]): 100; Morningglory plant response rating (morningglory [5]; [13]): 100; Plant response rating, Crabgrass, Large (crabgrass, large; 62 g ai/ha, 13 to 15 days): 100; Crabgrass, Large plant response rating (crabgrass, large; [15]): 100
CCCc1cc(C(=O)NCC(F)(F)F)nn1Cc1cc(C(F)(F)F)nn1C [Compound 138] |  |  |  |  |  | 100 | 100 | 90 |  |  | 90 | 80 |  |  | 100 | 100 |  |  |  |  | Velvetleaf plant response rating (velvetleaf; [8]): 100; Velvetleaf plant response rating (velvetleaf; [9]): 60; Morningglory plant response rating (morningglory [4]; [8]): 100; Morningglory plant response rating (morningglory [4]; [9]): 80; Morningglory plant response rating (morningglory [5]; [13]): 90; Morningglory plant response rating (morningglory [5]; [14]): 100
CCONC(=O)c1cc(CC)n(Cc2cc(C(F)(F)F)no2)n1 [Compound 125] | 15 | 5 | 5 | 90 | 85 | 90 | 30 | 50 | 95 | 0 | 90 | 30 | 100 | 65 | 100 | 100 | 55 | 0 | 95 | 5 | Soybean plant response rating (soybean; [15]): 10; Galium plant response rating (galium; [6]): 80; Galium plant response rating (galium; [15]): 100; Ryegrass, Italian plant response rating (ryegrass, Italian; [11]): 30; Ryegrass, Italian plant response rating (ryegrass, Italian; [18]): 20; Pigweed plant response rating (pigweed [1]; [7]): 75; Pigweed plant response rating (pigweed [1]; [15]): 90; Nutsedge, Yellow plant response rating (nutsedge, yellow; [7]): 5; Nutsedge, Yellow plant response rating (nutsedge, yellow; [15]): 15; Crabgrass, Large plant response rating (crabgrass, large; [7]): 25; Crabgrass, Large plant response rating (crabgrass, large; [15]): 75; Plant response rating (scale of 0 to 100), Morningglory (morningglory [3]): 95; Morningglory plant response rating (morningglory [3]; [10]): 45; Morningglory plant response rating (morningglory [3]; [11]): 50; Morningglory plant response rating (morningglory [3]; [18]): 75
CCc1cc(C(=O)NCC(F)(F)F)nn1Cc1cc(OC(F)F)nn1C [Compound 206] |  |  |  |  |  | 80 | 0 | 0 |  |  | 60 | 30 |  |  |  |  |  |  |  |  | Pigweed plant response rating (0 to 100 scale) (pigweed [2]; preemergence, 125 g ai/ha, visual injury approx. 10 days after treatment): 90
